Data published in patent US20230323463A1, “COMPOSITIONS AND METHODS FOR DETECTING BCL2L14 AND ETV6 GENE FUSIONS FOR DETERMINING INCREASED DRUG RESISTANCE” (UNIVERSITY OF PITTSBURGH-OF THE COMMONWEALTH SYSTEM OF …, priority 2020, published 2023).
“Also recorded” adds a separate entry of the source.

Columns and labels:
Type in all cases: cell-based, human
[1] = test system: engineered stable BT20 cells; assay: Paclitaxel dose curve, cell proliferation by MTS assay; details: BT20 cells expressing BCL2L14-ETV6 fusions vs vector or wtETV6; short-term (72 h) treatment, various doses
Description: (§1) Cell proliferation and clonogenic assays. Engineered stable BT20 cells were seeded at a density of 3,000 cells/well in a 96-well plate. Cell proliferation was measured by MTS assay at different time points using CellTiter 96 AQueous One Solution Cell Proliferation Assay (Promega). For paclitaxel dose curve, stable BT20 cells were seeded at a density of 5000 cells/well in a 96-well plate and treated with vehicle or different doses of paclitaxel. Cell proliferation was measured by MTS assay after 72 hours of treatment. For clonogenic assay, stable BT20 or MCF10A cells were seeded at a density of 10,000 cells/well in a 24-well plate. After attachment to the plate, cells were treated with 0.1% DMSO (vehicle) or paclitaxel at 5 nM for BT20 cells for 6 days or 15 nM for MCF10A cells for 5 days before replacement of the chemical with fresh growth medium. The remaining colonies were growing in the plate for one month and then stained with 0.5% crystal violet in 50% ethanol and counted using ChemiDoc photography (Bio-Rad) and ImageJ.

[2] = test system: engineered stable BT20 cells; assay: Clonogenic assay after prolonged paclitaxel treatment, BT20; details: 5 nM paclitaxel, one month
Description: as §1

[3] = test system: engineered stable MCF10A cells; assay: Clonogenic assay after prolonged paclitaxel treatment, MCF10A; details: MCF10A cells expressing BCL2L14-ETV6 fusions vs vector or wtETV6; 15 nM paclitaxel, one month
Description: as §1

engineered BT20 cells = assay: Apoptotic biomarkers by immunoblotting after paclitaxel treatment; details: BT20 cells overexpressing BCL2L14-ETV6 fusions vs wtETV6-expressing cells; 48 hours
Description: Western blot. For immunoblot analysis, total proteins were extracted by homogenizing the cells in NP40 Lysis Buffer supplemented with complete protease inhibitor cocktail tablet (Roche), 1 mM DTT, and 1 mM PMSF. 20~50 micrograms of protein extracts were denatured in sample buffer, separated by SDS-PAGE, and transferred onto a PVDF membrane (GE). The membranes were blocked and then incubated for 1 h at room temperature or overnight at 4° C. with primary antibodies, followed by incubation with respective horseradish peroxidaseconjugated secondary antibody. The signals were then visualized by the enhanced chemiluminescence system (Clarity Western ECL Substrate and ChemiDoc imaging system, Bio-Rad).

SMILES: CC(=O)O[C@H]1C(=O)[C@@]2(C)[C@H]([C@H](OC(=O)c3ccccc3)[C@]3(O)C[C@H](OC(=O)[C@H](O)[C@@H](NC(=O)c4ccccc4)c4ccccc4)C(C)=C1C3(C)C)[C@]1(OC(C)=O)CO[C@@H]1C[C@@H]2O [paclitaxel]
- sensitivity to paclitaxel (cell viability) [1]: modest reduced sensitivity; also recorded: increased resistance
- clonal resistance to paclitaxel ([2]; BT20 cells expressing BCL2L14-ETV6 fusions (E2E3, E4E3, E4E2)): evident clonal resistance; also recorded: clonal resistance in BT20 cells
- clonal survival after paclitaxel ([2]; BT20 cells expressing wtETV6 or vector control): almost eradicated
- clonal resistance to paclitaxel [3]: increased clonal resistance; also recorded: clonal resistance in MCF10A cells
- apoptosis biomarkers following paclitaxel treatment (engineered BT20 cells): did not show evident reduced apoptosis
